Marks after values point to notes of the source that are not given here.
How the values were obtained:
[1] = tested on: type 2 diabetes patients; assay: 24 week randomised, placebo-controlled double-blind clinical trial: blood ALT levels; type: in vivo, human; settings: for ΔALT Week 12, Mean ± SD / ΔALT Week 12, Median (range): change from baseline (Day 0) to Week 12; for ΔALT Week 12, Mean ± SD / ΔALT Week 12, Median (range) / ΔALT Week 24, Mean ± SD / ΔALT Week 24, Median (range): 40 mg b.i.d.; for ΔALT Week 24, Mean ± SD / ΔALT Week 24, Median (range): change from baseline (Day 0) to Week 24; for ΔALT Week 12, MTZ-Placebo / ΔALT Week 24, MTZ-Placebo: difference of mean ΔALT versus matching placebo group
From the text: The primary efficacy endpoint for the clinical trial was a reduction in HbA1c (ΔHbA1c) from baseline with methazolamide, relative to placebo, after 24 weeks of treatment. The primary safety measurement was the effect of methazolamide, compared to placebo, on venous blood gas parameters; a measure of acidosis. The clinical trial initially enrolled type 2 diabetes patients who were not treated with any anti-diabetic agent prior to entry into the trial. […] The metformin dose was not altered throughout the trial. Participant baseline demographic data are provided in Table 1-1, Participants randomized into the clinical trial were administered either daily doses of methazolamide (40 mg b.i.d.) or placebo for 24 weeks. Methazolamide was taken as 1×30 mg capsule and 1×10 mg capsule per dose at breakfast and dinner. Placebo (microcrystalline cellulose) was administered in identical presentation. […] Mean ALT levels over time are depicted in FIGS. 1(A) and 1(B).

[2] = tested on: db/db mice; assay: Fasting blood glucose in db/db mice, 9 days oral gavage; type: in vivo
Experimental: (§1) All reagents were purchased from Sigma-Aldrich (Australia). Dosing solutions of methazolamide were prepared fresh daily in sterile saline:PEG400 at 65:35 (v/v), protected from light and stored at room temperature. Male db/db mice (Animal Resource Centre, Australia) were housed with free access to water and food (standard rodent diet: Barastoc Rat & Mouse, Ridley Agriproducts, Australia). Room temperature was maintained at 21±2° C., humidity 40-70%, with a 12 h light/dark cycle. Mice were treated with methazolamide (50 mg/kg/day) or vehicle (n=4 per group) by single oral gavage doses each day for 9 days.
(§2) Daily blood samples were obtained from the tail tip of each mouse and glucose levels measured using a glucometer (AccuCheck II; Roche, Australia). At the end of the study, the animals were humanely killed and a portion of liver tissue (left lobe) was removed and fixed in 10% neutral-buffered formalin. The liver tissue was paraffin-embedded, sectioned (5 μm), mounted and stained with hematoxylin and eosin.

[3] = tested on: db/db mice; assay: Liver histology (hematoxylin and eosin) in db/db mice; type: in vivo; settings: after 9 days, 50 mg/kg/day; 3 of the 4 vehicle-treated animals had a high degree of hepatic steatosis
Experimental: as §1, §2

[4] = tested on: db/db mice; assay: Hepatic lipid content (modified Folch extraction) in db/db mice; type: in vivo
Experimental: as §1
A separate portion of the liver (right lobe) was used to measure hepatic lipid content. Lipid was extracted using a modified Folch protocol. The tissue was homogenised in 2:1 chloroform/methanol solution (10 ml), and filtered into a […] glass centrifuge tube. An additional 5 ml of 2:1 chloroform/methanol solution was added, followed by 2.5 ml of 0.9% NaCl. After thorough mixing, the extract was centrifuged for 5 min at 2,000 g at 10° C. After discarding the aqueous layer, the organic layer was dried under nitrogen, and total lipid content was assessed by weighing.

[5] = Week 12, methazolamide 40 mg b.i.d., listed as All MTZ (Alone + Met)
[6] = methazolamide 40 mg b.i.d., listed as All MTZ (Alone + Met)
[7] = methazolamide 40 mg b.i.d., listed as MTZ Alone
[8] = baseline (Day 0), before treatment, type 2 diabetes patients, listed as MTZ Alone
[9] = listed as All MTZ (Alone + Met)

For CC(=O)/N=c1/sc(S(N)(=O)=O)nn1C [methazolamide], the “ALT Week 12, Mean ± SD” value [1, 5] was 20.9 ± 9.8 U/L, the “ALT Week 12, Median (range)” value [1, 5] was 19 (8-50) U/L and the “ALT Week 12, Mean ± SD” value ([1]; Week 12, methazolamide 40 mg b.i.d., listed as MTZ Alone) was 22.1 ± 10.1 U/L. The “ALT Week 24, Mean ± SD” value [1, 6] was 21.3 ± 12.3 U/L, the “ALT Week 24, Median (range)” value [1, 6] was 20 (7-64) U/L and the “ALT Week 24, Mean ± SD” value [1, 7] was 22.0 ± 12.6 U/L. The “ALT Week 24, Median (range)” value [1, 7] was 17 (9-49) U/L, the “ALT Day 0, Median (range)” value ([1]; baseline (Day 0), before treatment, type 2 diabetes patients, listed as All MTZ (Alone + Met)) was 27.5 (16-83) U/L and the “ALT Day 0, Mean ± SD” value [1, 8] was 33.1 ± 16.9 U/L. The “ALT Day 0, Median (range)” value [1, 8] was 29 (16-83) U/L, the “ΔALT Week 12, Mean ± SD” value [1, 9] was −10.9 ± 7.7 and the “ΔALT Week 12, Median (range)” value [1, 9] was −9 (−40, −2). For the same compound, the “ΔALT Week 12, Mean ± SD” value ([1]; listed as MTZ Alone) was −10.4 ± 9.3, the “ΔALT Week 12, Median (range)” value ([1]; listed as MTZ Alone) was −8.5 (−40, −4) and the “ΔALT Week 24, Mean ± SD” value [1, 9] was −10.7 ± 8.2. For the same compound, the “ΔALT Week 24, Median (range)” value [1, 9] was −8.5 (−34, +4), the “ΔALT Week 24, Mean ± SD” value ([1]; listed as MTZ Alone) was −11.0 ± 8.1 and the “ΔALT Week 24, Median (range)” value ([1]; listed as MTZ Alone) was −8 (−34, −3). The “ΔALT Week 12, MTZ-Placebo” value ([1]; Week 12, listed as All MTZ (Alone + Met)) was −14.8*^§, the “ΔALT Week 12, MTZ-Placebo” value ([1]; Week 12, listed as MTZ Alone) was −18.1 and the “ΔALT Week 24, MTZ-Placebo” value [1, 9] was −9.3^†§. The “ΔALT Week 24, MTZ-Placebo” value ([1]; listed as MTZ Alone) was −8.0, the “time of treatment after which reduction in blood ALT levels was evident” value ([1]; patients treated with methazolamide) was 1 week and the “time of treatment after which reduced ALT level reached a plateau” value ([1]; plateau maintained for the remainder of the 24 week treatment period) was 2 weeks. The “Fasting Blood Glucose, Day 0” value ([2]; Day 0 (baseline), male db/db mice, n=4) was 26.0 ± 1.2 mM, the “Fasting Blood Glucose, Day 9” value ([2]; Day 9, 50 mg/kg/day oral gavage, p < 0.05 vs Day 0) was 13.7 ± 2.4 mM and the “reduction of fasting blood glucose levels relative to vehicle treated-controls” value ([2]; db/db mice, 50 mg/kg/day, 9 days) was 47%. For the same compound, the “treated db/db mice that appeared to have greatly reduced hepatic steatosis (liver histology)” value [3] was 2 of the 4, the “Liver lipid content (% of liver weight), Day 9” value ([4]; Day 9, 50 mg/kg/day oral gavage, p < 0.05 vs vehicle) was 7.4 ± 1.2% and the “liver lipid content (w/w) lower compared to vehicle treated controls” value ([4]; after 9 days of treatment, db/db mice) was 48%.

From US20180333399A1, “METHOD OF IMPROVING LIVER FUNCTION” (NAIA METABOLIC, INC., priority 2012, published 2018)
